# Test system: up to 32 different microorganisms
# Assay: in vitro antibacterial activity (MIC), agar dilution on Brain Heart Infusion (BHI) agar with Steers replicator
# Assay type: cell-based
# Conditions: unit assumed
# Procedure: Representative compounds of the present invention were assayed in vitro for antibacterial activity as follows: Twelve petri dishes containing successive aqueous dilutions of the test compound mixed with 10 mL of sterilized Brain Heart Infusion (BHI) agar (Difco 0148-01-5) were prepared. Each plate was inoculated with 1:100 (or 1:10 for slow-growing strains, such as Micrococcus and Streptococcus) dilutions of up to 32 different microorganisms, using a Steers replicator block. The inoculated plates were incubated at 35°-37° C. for 20 to 24 hours. In addition, a control plate, using BHI agar containing no test compound, was prepared and incubated at the beginning and end of each test.
# An additional plate containing a compound having known susceptibility patterns for the organisms being tested and belonging to the same antibiotic class as the test compound was also prepared and incubated as a further control, as well as to provide test-to-test comparability. Erythromycin A was used for this purpose.
# After incubation, each plate was visually inspected. The minimum inhibitory concentration (MIC) was defined as the lowest concentration of drug yielding no growth, a slight haze, or sparsely isolated colonies on the inoculum spot as compared to the growth control.
structure (smiles),measurement,setting,value
"CC[C@H]1OC(=O)[C@H](C)C(=O)[C@H](C)[C@@H](O[C@@H]2O[C@H](C)C[C@H](N(C)C)[C@H]2O)[C@@](C)(OCC(O)C#N)C[C@@H](C)C(=O)[C@H](C)[C@@H](O)[C@]1(C)O (stereo partly drawn) [Example 175, Compound of Formula (VIII): X is O, R is CH2—CH(OH)—CN]",MIC,Candida albicans CCH 442 (code TT),> 100 µg/mL
same,MIC,Enterococcus faecism ATCC 8043 (code II),0.02 µg/mL
same,MIC,Escherichia coli DC-2 (code SS),> 100 µg/mL
same,MIC,Escherichia coli JUHL (code QQ),> 100 µg/mL
same,MIC,Escherichia coli SS (code RR),0.78 µg/mL
same,MIC,Haemophilis influenzae DILL AMP R (code WW),64 µg/mL
same,MIC,Micrococcus luteus ATCC 4698 (code PP),0.1 µg/mL
same,MIC,Micrococcus luteus ATCC 9341 (code OO),0.05 µg/mL
same,MIC,Mycobacterium smegmatis ATCC 114 (code UU),0.78 µg/mL
same,MIC,Nocardia Asteroides ATCC9970 (code VV),0.39 µg/mL
same,MIC,Staphylococcus aureus 1775 (code GG),12.5 µg/mL
same,MIC,Staphylococcus aureus A5177 (code BB),0.39 µg/mL
same,MIC,Staphylococcus aureus A-5278 (code CC),25 µg/mL
same,MIC,Staphylococcus aureus ATCC 6538P (code AA),0.2 µg/mL
same,MIC,Staphylococcus aureus CMX 553 (code FF),0.78 µg/mL
same,MIC,Staphylococcus aureus CMX 642A (code DD),0.78 µg/mL
same,MIC,Staphylococcus aureus NCTC10649M (code EE),0.78 µg/mL
same,MIC,Staphylococcus epidermidis 3519 (code HH),0.78 µg/mL
same,MIC,Streptococcus Pneumonia 5649 (code ZZA),2 µg/mL
same,MIC,Streptococcus Pneumonia 5979 (code ZZ),8 µg/mL
same,MIC,Streptococcus Pneumonia ATCC6303 (code XX),0.03 µg/mL
same,MIC,Streptococcus Pneumonia GYR 1171 (code YY),0.03 µg/mL
same,MIC,Streptococcus agalactiae CMX 508 (code KK),0.02 µg/mL
same,MIC,Streptococcus bovis A-5169 (code JJ),0.02 µg/mL
same,MIC,Streptococcus pyogenes 930 (code MM),3.1 µg/mL
same,MIC,Streptococcus pyogenes EES61 (code LL),0.01 µg/mL
same,MIC,Streptococcus pyogenes PIU 2548 (code NN),0.39 µg/mL
"CC[C@H]1OC(=O)[C@H](C)C(=O)[C@H](C)[C@@H](O[C@@H]2O[C@H](C)C[C@H](N(C)C)[C@H]2O)[C@@](C)(OCC#Cc2ccc3ncccc3c2)C[C@@H](C)C(=O)[C@H](C)[C@H]2NC(=O)O[C@@]21C [Example 254, Compound of Formula (IX): L is CO, T is NH, R is —CH2—C≡C-(6-quinolyl)]",MIC,organism code AA,0.1 µg/mL
same,MIC,organism code BB,0.1 µg/mL
same,MIC,organism code CC,> 100 µg/mL
same,MIC,organism code DD,0.1 µg/mL
same,MIC,organism code EE,0.1 µg/mL
same,MIC,organism code FF,0.1 µg/mL
same,MIC,organism code GG,> 100 µg/mL
same,MIC,organism code HH,0.1 µg/mL
same,MIC,organism code II,0.02 µg/mL
same,MIC,organism code JJ,≤ 0.005 µg/mL
same,MIC,organism code KK,0.01 µg/mL
same,MIC,organism code LL,0.01 µg/mL
same,MIC,organism code MM,0.78 µg/mL
same,MIC,organism code NN,0.1 µg/mL
same,MIC,organism code OO,0.02 µg/mL
same,MIC,organism code PP,0.1 µg/mL
same,MIC,organism code QQ,25 µg/mL
same,MIC,organism code RR,0.2 µg/mL
same,MIC,organism code SS,100 µg/mL
same,MIC,organism code TT,> 100 µg/mL
same,MIC,organism code UU,0.78 µg/mL
same,MIC,organism code VV,0.01 µg/mL
same,MIC,organism code WW,2 µg/mL
same,MIC,organism code XX,≤ 0.004 µg/mL
same,MIC,organism code YY,≤ 0.004 µg/mL
same,MIC,organism code ZZ,2 µg/mL
same,MIC,organism code ZZA,0.25 µg/mL
CCC1OC(=O)C(C)C(=O)C(C)C(OC2OC(C)CC(N(C)C)C2O)C(C)(OCC=Cc2ccc3ncc(-c4cccnc4)cc3c2)CC(C)C(=O)C(C)C2NC(=O)OC12C (stereo not drawn) [Example 274],MIC,organism code AA,0.1 µg/mL
same,MIC,organism code BB,0.1 µg/mL
same,MIC,organism code CC,> 100 µg/mL
same,MIC,organism code DD,0.1 µg/mL
same,MIC,organism code EE,0.1 µg/mL
same,MIC,organism code FF,0.05 µg/mL
same,MIC,organism code GG,> 100 µg/mL
same,MIC,organism code HH,0.1 µg/mL
same,MIC,organism code II,0.05 µg/mL
same,MIC,organism code JJ,0.01 µg/mL
same,MIC,organism code KK,0.01 µg/mL
same,MIC,organism code LL,0.01 µg/mL
same,MIC,organism code MM,6.2 µg/mL
same,MIC,organism code NN,0.1 µg/mL
same,MIC,organism code OO,0.01 µg/mL
same,MIC,organism code PP,0.1 µg/mL
same,MIC,organism code QQ,> 100 µg/mL
same,MIC,organism code RR,0.2 µg/mL
same,MIC,organism code SS,> 100 µg/mL
same,MIC,organism code TT,> 100 µg/mL
same,MIC,organism code UU,0.78 µg/mL
same,MIC,organism code VV,0.05 µg/mL
same,MIC,organism code WW,4 µg/mL
same,MIC,organism code XX,≤ 0.004 µg/mL
same,MIC,organism code YY,≤ 0.004 µg/mL
same,MIC,organism code ZZ,8 µg/mL
same,MIC,organism code ZZA,0.25 µg/mL
